What is called inhibition is the percentage by which the read-out fell short of the control. Higher therefore signals a strong effect.

human PDE4B enzyme (PDE4B2), sequence (Q07343 1-564 isoform Q07343-2): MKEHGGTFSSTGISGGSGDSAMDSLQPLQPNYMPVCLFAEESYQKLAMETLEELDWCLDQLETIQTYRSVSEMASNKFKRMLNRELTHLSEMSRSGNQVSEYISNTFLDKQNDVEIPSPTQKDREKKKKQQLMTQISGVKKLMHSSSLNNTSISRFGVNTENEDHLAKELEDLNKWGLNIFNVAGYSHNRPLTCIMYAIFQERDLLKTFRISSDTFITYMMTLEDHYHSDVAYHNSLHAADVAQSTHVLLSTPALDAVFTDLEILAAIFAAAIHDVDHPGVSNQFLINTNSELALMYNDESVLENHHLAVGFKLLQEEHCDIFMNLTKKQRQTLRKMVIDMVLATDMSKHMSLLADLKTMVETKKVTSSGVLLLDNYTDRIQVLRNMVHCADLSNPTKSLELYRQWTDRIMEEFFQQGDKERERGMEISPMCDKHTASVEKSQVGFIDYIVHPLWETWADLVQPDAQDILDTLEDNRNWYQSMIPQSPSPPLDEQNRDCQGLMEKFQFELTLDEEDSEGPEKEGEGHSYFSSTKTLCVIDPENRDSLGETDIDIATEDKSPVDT

The target in the first assay is human PDE4B enzyme (PDE4B2) (Homo sapiens, UniProt Q07343). The assay is described as follows: Phosphodiesterase 4 screening assay (SPA, [3H]-cAMP). The format is biochemical. Conditions: 100 nM compound; 0.5 μM cAMP. The protocol:
Phosphodiesterase 4 Screening Assay:
PDE4 (Phosphodiesterase type IV) enzymes convert cyclic AMP (cAMP) into AMP. The assay is performed to determine the effect of test compounds on the inhibition of purified human PDE4B enzyme.
The assay involves the detection of the Tritiated AMP (product) using SPA beads known as yittrium silicate. The linear AMP bind preferentially to SPA yittrium silicate beads compared to cyclic nucleotides in the presence of zinc sulphate. The binding of the radiolabelled product to the bead brings the isotope into close proximity to allow radiation from the tritium to excite the scintillant within the bead to emit light. The unbound radiolabel is not close enough to allow this energy transfer and the light emitted due to the binding of tritiated AMP is detected as cpm (counts per minute).
PDE Activity (SPA Based Assay Protocol):
PDE4B activity was inhibited by the compounds according to the invention in a modified SPA (scintillation proximity assay) test, supplied by GE Healthcare Life Sciences (see procedural instructions “Phosphodiesterase [^3H]-cAMP SPA enzyme assay, code TRKQ 7090”), carried out in 96-well microtitre plates. The test volume is 100 μL and contains 50 mM Tris buffer (pH 7.4), 8.3 mM Mg^2+, in the presence of inhibitor or test compound, and containing PDE4B2 enzyme (sufficient to ensure that 10-20% of the cAMP is converted, under the said experimental conditions). […] After a pre-incubation of 5 minutes at 37° C., the reaction is started by adding the substrate (cAMP; 0.5 μM cAMP, including about 50,000 cpm of [^3H]-cAMP) and the assays are incubated for a further 10 minutes; after that, they are stopped by adding SPA beads containing 18 mM ZnSO4 (50 μl). After the beads have been sedimented (>30 minutes), the microtitre plates are analyzed in a Microplate luminescence detection device (TopCount* NXT; PerkinElmer Life Sciences). Where, the signal in the absence of enzyme is defined as the background. 100% activity was defined as the signal detected in the presence of enzyme and DMSO with the background subtracted. The corresponding IC50 values of the compounds for the inhibition of PDE4B2 activity are determined from the concentration-effect curves by means of non-linear regression fit of the standard 4-parameter/multiple binding sites equation from a eight- to ten-point titration. (Catherine B. et al. Anal. Biochem., 1999, 275(2), pp. 148-155, David M. E. Biochem. Pharmacol., 1999, 57, pp. 965-973)
With `COc1ccc(-c2nc(-c3ccc(C#N)cc3)cs2)c2c1oc1ccccc12` [Example 8, 4-(2-(4-Methoxydibenzo[b,d]furan-1-yl)-1,3-thiazol-4-yl)benzonitrile], the inhibition at 0.1 µM stood at 5.16%.
`COc1ccc(-c2nc(CC(=O)Nc3c(Cl)cncc3Cl)cs2)c2c1oc1ccccc12` [Example 12, N-(3,5-Dichloropyridin-4-yl)-2-(2-(4-methoxydibenzo[b,d]furan-1-yl)-1,3-thiazol-4-yl)acetamide] yielded an inhibition at 0.1 µM of 8.92%.
In turn, `CCOC(=O)c1csc(-c2ccc(OC)c3oc4ccccc4c23)n1` [Example 15, Ethyl 2-(4-methoxydibenzo[b,d]furan-1-yl)-1,3-thiazole-4-carboxylate] had an inhibition at 0.1 µM of 17.6%.
Molecule `COc1ccc(-c2nc(C(=O)O)cs2)c2c1oc1ccccc12` [Example 16, 2-(4-Methoxydibenzo[b,d]furan-1-yl)-1,3-thiazole-4-carboxylic acid] displayed an inhibition at 0.1 µM of 36%.
On to `COc1ccc(-c2nc(C(=O)Nc3ccccc3)cs2)c2c1oc1ccccc12` [Example 17, 2-(4-Methoxydibenzo[b,d]furan-1-yl)-N-phenyl-1,3-thiazole-4-carboxamide], for which the inhibition at 0.1 µM was determined as 2.42%.
The same measure, in the same setting: under `COc1ccc(-c2nc(C(=O)N3CCN(c4ncccn4)CC3)cs2)c2c1oc1ccccc12` [Example 18, (2-(4-Methoxydibenzo[b,d]furan-1-yl)-1,3-thiazol-4-yl)(4-(pyrimidin-2-yl)piperazin-1-yl)methanone] stands 25.8%; under `COc1ccc(-c2nc(C(=O)N3CCN(c4ccccn4)CC3)cs2)c2c1oc1ccccc12` [Example 19, (2-(4-Methoxydibenzo[b,d]furan-1-yl)-1,3-thiazol-4-yl)(4-(pyridin-2-yl)piperazin-1-yl)methanone], 21.9%; under `COc1ccc(-c2nc(C(=O)Nc3ccc(Cl)cc3)cs2)c2c1oc1ccccc12` [Example 20, N-(4-Chlorophenyl)-2-(4-methoxydibenzo[b,d]furan-1-yl)-1,3-thiazole-4-carboxamide], 2.98%.
On to `CCOC(=O)c1sc(-c2ccc(OC)c3oc4ccccc4c23)nc1C` [Example 21, Ethyl 2-(4-methoxydibenzo[b,d]furan-1-yl)-4-methyl-1,3-thiazole-5-carboxylate], for which the inhibition at 0.1 µM came out at 9.1%.
In turn, `COc1ccc(-c2csc(-c3ccc(OC)c4oc5ccccc5c34)n2)cc1` [Example 22, 2-(4-Methoxydibenzo[b,d]furan-1-yl)-4-(4-methoxyphenyl)-1,3-thiazole] registered an inhibition at 0.1 µM of 19.4%.
As for `COc1ccc(-c2nc(C)c(C(=O)O)s2)c2c1oc1ccccc12` [Example 23, 2-(4-Methoxydibenzo[b,d]furan-1-yl)-4-methyl-1,3-thiazole-5-carboxylic acid], testing at 0.1 µM gave an inhibition of 16.8%.
Turning to `CS(=O)(=O)Nc1ccc2oc3c(OC(F)F)ccc(-c4nc(C(=O)O)co4)c3c2c1` [Example 49, 2-(4-(Difluoromethoxy)-8-(methylsulfonamido)dibenzo[b,d]furan-1-yl)-1,3-oxazole-4-carboxylic acid], at 0.1 µM the inhibition was 59.5%.
The same measure, in the same setting: under `CCNC(=O)c1nc(-c2ccc(OC)c3oc4ccccc4c23)oc1C` [Example 57, N-Ethyl 2-(4-methoxydibenzo[b,d]furan-1-yl)-5-methyl-1,3-oxazole-4-carboxamide] stands 32.5%.
Molecule `COc1ccc(-c2nc(C(N)=O)c(C)o2)c2c1oc1ccccc12` [Example 58, 2-(4-Methoxydibenzo[b,d]furan-1-yl)-5-methyl-1,3-oxazole-4-carboxamide] displayed an inhibition at 0.1 µM of 64.1%.
`COc1ccc(-c2nc(C(=O)NC3CCC(O)CC3)c(C)o2)c2c1oc1ccccc12` (stereo not drawn) [Example 60, N-(4-Hydroxycyclohexyl)-2-(4-methoxydibenzo[b,d]furan-1-yl)-5-methyl-1,3-oxazole-4-Carboxamide] gave an inhibition at 0.1 µM of 47.3%.
On to `COc1ccc(-c2nc(C(=O)NC(C)C)c(C)o2)c2c1oc1ccccc12` [Example 61, 2-(4-Methoxydibenzo[b,d]furan-1-yl)-5-methyl-N-(propan-2-yl)-1,3-oxazole-4-carboxamide], for which the inhibition at 0.1 µM amounted to 44.3%.
In the case of `COc1ccc(-c2nc(C(=O)N3CCN(c4ncc(C(=O)O)cn4)CC3)co2)c2c1oc1ccccc12` [Example 66, 2-(4-(2-(4-Methoxydibenzo[b,d]furan-1-yl)oxazole-4-carbonyl)piperazin-1-yl)pyrimidine-5-carboxylic acid], the inhibition at 0.1 µM worked out at 18.9%.
On the same count and under the same terms, under `COc1ccc(-c2nc(C(N)=O)co2)c2c1oc1ccccc12` [Example 67, 2-(4-Methoxydibenzo[b,d]furan-1-yl)-1,3-oxazole-4-carboxamide] stands 22.8%.
For the molecule `CNC(=O)c1coc(-c2ccc(OC)c3oc4ccccc4c23)n1` [Example 69, 2-(4-Methoxydibenzo[b,d]furan-1-yl)-N-methyl-1,3-oxazole-4-carboxamide], at 0.1 µM the inhibition was 33.3%.
`COc1ccc(-c2nc(C(=O)NC3CC3)co2)c2c1oc1ccccc12` [Example 70, N-Cyclopropyl-2-(4-methoxydibenzo[b,d]furan-1-yl)-1,3-oxazole-4-carboxamide] registered an inhibition at 0.1 µM of 2.34%.
In turn, `COc1ccc(-c2nc(C(=O)N3CCCC3)co2)c2c1oc1ccccc12` [Example 71, [2-(4-Methoxydibenzo[b,d]furan-1-yl)-1,3-oxazol-4-yl](pyrrolidin-1-yl)methanone] returned an inhibition at 0.1 µM of 20.3%.
As to `COc1ccc(-c2nc3cc(C(=O)O)ccc3o2)c2c1oc1ccccc12` [Example 72, 2-(4-Methoxydibenzo[b,d]furan-1-yl)-1,3-benzo[d]oxazole-5-carboxylic acid], testing at 0.1 µM gave an inhibition of 22.2%.
Still for that read-out and setting: under `COc1ccc(-c2nc3cc(C(N)=O)ccc3o2)c2c1oc1ccccc12` [Example 73, 2-(4-Methoxydibenzo[b,d]furan-1-yl)-1,3-benzo[d]oxazole-5-carboxamide] stands 18.1%.
`COc1ccc(-c2nc3ccccc3o2)c2c1oc1ccccc12` [Example 74, 2-(4-Methoxydibenzo[b,d]furan-1-yl)-1,3-benzo[d]oxazole] gave an inhibition at 0.1 µM of 54.9%.
In turn, `COc1ccc(-c2nc3ncccc3o2)c2c1oc1ccccc12` [Example 75, 2-(4-Methoxydibenzo[b,d]furan-1-yl)[1,3]oxazolo[4,5-b]pyridine] gave an inhibition at 0.1 µM of 37.2%.
For `COc1ccc(-c2nc3cc(C(=O)NC4CCCC4)ccc3o2)c2c1oc1ccccc12` [Example 76, N-Cyclopentyl-2-(4-methoxydibenzo[b,d]furan-1-yl)-1,3-benzo[d]oxazole-5-carboxamide], the inhibition at 0.1 µM is 48.3%.
For `COc1ccc(-c2nc3cc(C(=O)NC4CCC(O)CC4)ccc3o2)c2c1oc1ccccc12` (stereo not drawn) [Example 77, N-(4-Hydroxycyclohexyl)-2-(4-methoxydibenzo[b,d]furan-1-yl)-1,3-benzo[d]oxazole-5-carboxamide], 0.1 µM produced 55.3% inhibition.

A further assay deals with TNF-α. The experiment in a line: In vitro measurement of TNF-α production in LPS-stimulated human PBMC (ELISA). In kind it is cell-based. Conditions: 100 nM compound, LPS 1 μg/mL, 18 h, NA: Not active. The protocol: Biological Activity In Vitro Measurement of Tumor Necrosis Factor Alpha (TNF-α):
This assay determines the effect of test compounds on the production of TNF-α in human Peripheral Blood Mononuclear Cells (PBMC). Compounds were tested for their ability to inhibit the activity of TNF α in human PBMC. PBMC were isolated from blood (of healthy volunteers) using BD Vacutainer CPT™ (Cell preparation tube, BD Bio Science) and suspended in RPMI (Rosewell park memorial institute) medium (Physiol. Res. 2003, 52, 593-598). The test compounds were pre-incubated with PBMC (0.5 million/incubation well) for 15 minutes at 37° C. and then stimulated with Lipopolysaccharide (Escherichia coli: B4; 1 μg/mL) for 18 h at 37° C. in 5% CO2. The levels of TNF-α in the cell culture medium were estimated using enzyme-linked immunosorbent assay performed in a 96 well format as per the procedure of the manufacturer (Cayman Chemical, Ann Arbor, USA).
Background: ELISA stands for enzyme-linked immunosorbent assay.
For the molecule `COc1ccc(-c2nc(-c3cccc(C(=O)O)n3)cs2)c2c1oc1ccccc12` [Example 2, 6-(2-(4-Methoxydibenzo[b,d]furan-1-yl)-1,3-thiazol-4-yl)picolinic acid], at 0.1 µM the inhibition was 26.1%.
Molecule `COc1ccc(-c2nc(C(=O)NC3CCCC3)c(C)s2)c2c1oc1ccccc12` [Example 26, N-Cyclopentyl-2-(4-methoxydibenzo[b,d]furan-1-yl)-5-methyl-1,3-thiazole-4-carboxamide] displayed an inhibition at 0.1 µM of 21.9%.
In turn, `COc1ccc(-c2nc(C(=O)NC3CCC(O)CC3)c(C)s2)c2c1oc1ccccc12` (stereo not drawn) [Example 27, N-(4-Hydroxycyclohexyl)-2-(4-methoxydibenzo[b,d]furan-1-yl)-5-methyl-1,3-thiazole-4-carboxamide] came in with an inhibition at 0.1 µM of 82.7%.

For the origin of these results see US8580795B2, “Heterocyclic compounds as phosphodiesterase inhibitors” (Orchid Chemicals & Pharmaceuticals Limited, priority 2009, dated 2013).
